# US12552796B2, “EED inhibitor, and preparation method therefor and use thereof” (SHANGHAITECH UNIVERSITY, priority 2019, dated 2026)
# Key:
# [1] = tested on: Karpas 422 human B-cell lymphoma cells; experiment: Mouse Karpas422 CDX model, tumor growth; type: in vivo, balb/c nude mice; conditions: Karpas422 CDX mice; for tumor growth inhibition (TGI %), Day 11 after administration / tumor growth inhibition (TGI %), Day 21 after administration: intragastric; for effect on tumor growth (FIG. 1): different dosages
# Experimental: Female balb/c nude mice aged 6-8 weeks were selected and housed under SPF conditions (i.e., 20-22° C.; 40-70% relative humidity) in individual ventilated cages at constant temperature and humidity. There were 5 or fewer animals in each cage. Animals had access to dry pelleted food sterilized by irradiation and sterile drinking water. Karpas 422 human B-cell lymphoma cells were cultured in RPMI-1640 (Gibco, product No. 31800022) containing 15% fetal bovine serum (FBS, Gibco, product No. 10099141) and 0.1% penicillin/streptomycin solution (P/S). The cells were cultured in a sterile incubator at a temperature of 37° C., a relative humidity of 95%, and 5% CO2. Karpas 422 cells cultured in vitro were maintained at a concentration between 0.5-2×10^6 cells/mL cells in suspension culture and passaged at a 1:3 dilution every 2-4 days. To establish the xenograft model, cells were collected, resuspended in PBS, mixed 1:1 by volume with Matrigel (BD) at a concentration of 5×10^7 cells/mL, and then injected subcutaneously into the right side of balb/c nude mice (Vital River) with 5×10^6 cells per animal. When tumors grew to about 150 mm^3, mice were divided into groups with 6 mice in each group. The mice were administered intragastrically, and the tumor size and mouse body weight were measured twice a week. The two largest diameters of the transplanted tumor, width (W) and length (L), were manually measured with a vernier caliper, and the tumor volume was estimated using the formula: 0.5×L×W^2. After the assay, the mice were euthanized.
# The assay compounds were prepared as a suspension in pure water containing 0.5% HPMC+0.5% Tween 80 as a solvent. The dosing volume was 10 mL/kg.
# In this study, changes in mouse tumor volume and relative changes in mouse body weight were assayed, and the results were shown in FIGS. 1 and 2.
# [2] = tested on: cellular H3K27 methylation; experiment: Cellular H3K27 methylation assay (Western blot of H3K27me3 in HeLa cells); type: cell-based; conditions: Homo sapiens, 72 h; HeLa cells, 3 days, H3K27me3 level by Western blot; read-out: PD IC50
# Pfeiffer cells = experiment: Cell proliferation assay, Pfeiffer; type: cell-based; conditions: Homo sapiens, cultured to the 9th day, read-out: Anti-proliferation IC50
# Experimental: (§1) Human B-cell non-Hodgkin's lymphoma cells WSU-DLCL2, Karpas422 and Pfeiffer were cultured in cell culture flasks in a sterile incubator with 95% relative humidity and 5% CO2 at 37° C. The medium was RPMI-1640 (Gibco, product No. 31800022) containing 15% fetal bovine serum (FBS, Gibco, product No. 10099141) and 0.1% penicillin/streptomycin solution (P/S). In order to assay the effects of compounds on cell proliferation, cells in exponential growth phase were seeded into a 12-well plate (Nunc, product No. 150628) with 1 mL of medium per well, wherein WSU-DLCL2 and Karpas422 were seeded at a density of 1×10^5 cells/well, and Pfeiffer was seeded at a density of 2×10^5 cells/well. At the same time, different concentrations of compounds were added to the wells that had seeded with cells (6 concentrations were set for each compound at 3-fold serial dilution), and the final concentration of DMSO was 0.1%. After that, the number of viable cells was determined by Vi-CELL (Beckman Coulter) for WSU-DLCL2 and Pfeiffer every 3 days, and for Karpas422 on days 4, 7, and 11, respectively. The cells counted each time were seeded into a new 12-well plate at the same density, and supplemented with fresh medium to 1 mL. Different concentrations of compounds were added at the same time. WSU-DLCL2 and Pfeiffer were cultured to the 9th day, and Karpas422 was cultured to the 14th day. Cell data were collected uniformly, and analyzed with GraphPad prisim5. Dose curves were fitted, and IC50 values of the assay compounds were obtained.
# [3] = Pharmacokinetic study in canine; type: in vivo, Beagle dogs; conditions: Beagle dog; for AUC(0-inf) / Cmax / Tmax / clearance / half-life / MRT inf: male, plasma; for MRT inf: read-out: MRT0-∞
# Experimental: Six ordinary Beagle dogs, male, weighing 10-12 kg, were randomly divided into 2 groups with 3 dogs in each group. The compounds of the present disclosure were administered by oral gavage (PO) and intravenous injection (IV), respectively, and the assay compounds were formulated with the corresponding vehicles.
# Dosage: 1 mg/kg for intravenous injection and 5 mg/kg for oral administration.
# (§2) Dosing volume: 5 mL/kg for intravenous injection and 10 mL/kg for oral administration.
# The oral administration group was fasted overnight (10-14 h) before the assay, and drank water freely. After 4 hours of administration, they were fed uniformly. They were weighed before administration, and the dosage was calculated according to the body weight. 2. Blood collection time point and sample processing:
# Intravenous administration: 0.083, 0.25, 0.5, 1, 2, 4, 8, 12 and 24 h after administration;
# Oral gavage administration: 0.25, 0.5, 1, 2, 4, 6, 8, 12 and 24 h after administration;
# Blood was collected from the veins of extremities, about 0.5-1 mL each time. The blood was anticoagulated with heparin sodium, placed on ice after collection, and centrifuged within 1 hour to separate the plasma (centrifugation conditions: 6800 g, 6 minutes, 2-8° C.). Plasma samples were stored in a −80° C. freezer prior to analysis.
# The concentration of each compound in canine plasma was determined by LC/MS/MS method.
# (§3) Through the plasma drug concentration data at different time points, pharmacokinetic parameters were calculated using Phoenix WinNonlin 7.0, thereby providing parameters such as AUC0-t, AUC0-∞, MRT0-∞, Cmax, Tmax, and T1/2 and mean and standard deviation thereof.
# [4] = Pharmacokinetic study in rats; type: in vivo, SD rats; conditions: rat; for AUC(0-inf) / Cmax / Tmax / clearance / half-life / MRT inf: male, SD, plasma; for MRT inf: read-out: MRT0-∞
# Experimental: Six SPF SD rats, male, weighing 180-220 g, were randomly divided into 2 groups with 3 rats in each group. The compounds of the present disclosure were administered by oral gavage (PO) and intravenous injection (IV), respectively, and the assay compounds were formulated with a vehicle (5% DMSO+10% Solutol+85% pH 4.65 Acetate buffer).
# Dosage: 1 mg/kg for intravenous injection and 2 mg/kg for oral administration.
# as §2
# The oral administration group was fasted overnight (10-14 h) before the assay, and drank water freely. After 4 hours of administration, they were fed uniformly. They were weighed before administration, and the dosage was calculated according to the body weight.
# Intravenous administration: 0.083, 0.25, 0.5, 1, 2, 4, 6, 8, 10 and 24 h after administration;
# Oral gavage administration: 0.25, 0.5, 1, 2, 4, 6, 8, 10, 12 and 24 h after administration;
# Blood was collected from the jugular vein of rats at the above set time points, about 0.2 mL each time. The blood was anticoagulated with heparin sodium, placed on ice after collection, and centrifuged within 1 hour to separate the plasma (centrifugation conditions: 6800 g, 6 minutes, 2-8° C.). Plasma samples were stored in a −80° C. freezer prior to analysis.
# The concentration of each compound in rat plasma was determined by LC/MS/MS method.
# as §3
# Karpas422 cells = experiment: Cell proliferation assay, Karpas422; type: cell-based; conditions: Homo sapiens, KARPAS-422; Karpas422 cells, cultured to the 14th day; read-out: Anti-proliferation IC50
# Experimental: as §1
# WSU-DLCL2 cells = experiment: Cell proliferation assay, WSU-DLCL2; type: cell-based; conditions: Homo sapiens, WSUDLCL2; WSU-DLCL2 cells, cultured to the 9th day; read-out: Anti-proliferation IC50
# Experimental: as §1
SMILES,"tumor growth inhibition (TGI %), Day 11 after administration ([1]; 30 mg/kg)","tumor growth inhibition (TGI %), Day 21 after administration ([1]; 30 mg/kg)","tumor growth inhibition (TGI %), Day 11 after administration ([1]; 100 mg/kg)","tumor growth inhibition (TGI %), Day 21 after administration ([1]; 100 mg/kg)",effect on tumor growth (FIG. 1) [1],IC50 [2],IC50 (Pfeiffer cells),"F ([3]; PO, 5 mg/kg)","AUC(0-inf) ([3]; IV, 1 mg/kg)","Cmax ([3]; IV, 1 mg/kg)","Tmax ([3]; IV, 1 mg/kg)","clearance ([3]; IV, 1 mg/kg)","half-life ([3]; IV, 1 mg/kg)","MRT inf ([3]; IV, 1 mg/kg)","AUC(0-inf) ([3]; PO, 5 mg/kg)","Cmax ([3]; PO, 5 mg/kg)","Tmax ([3]; PO, 5 mg/kg)","half-life ([3]; PO, 5 mg/kg)","MRT inf ([3]; PO, 5 mg/kg)","AUC(0-inf) ([4]; IV, 1 mg/kg)",further results
CN(C(=O)C1CC1)c1cnc(NCc2c(F)ccc3c2CCO3)n2cnnc12 [HJM-045],0.25%,60.06%,10.7%,81.43%,complete tumor disappearance,13 nM,10.5 nM,90.95%,4500 ng·h/mL,1150 ng/mL,0.08 h,3.7 mL/min/kg,4.13 h,5.35 h,20700 ng·h/mL,3700 ng/mL,0.5 h,4.29 h,5.75 h,639 ng·h/mL,"Cmax ([4]; IV, 1 mg/kg): 794 ng/mL; Tmax ([4]; IV, 1 mg/kg): 0.08 h; clearance ([4]; IV, 1 mg/kg): 26.4 mL/min/kg; half-life ([4]; IV, 1 mg/kg): 1.17 h; MRT inf ([4]; IV, 1 mg/kg): 1.06 h; AUC(0-inf) ([4]; PO, 2 mg/kg): 628 ng·h/mL; Cmax ([4]; PO, 2 mg/kg): 119 ng/mL; Tmax ([4]; PO, 2 mg/kg): 2.83 h; half-life ([4]; PO, 2 mg/kg): 1.46 h; MRT inf ([4]; PO, 2 mg/kg): 3.51 h; F ([4]; PO, 2 mg/kg): 48.40%; IC50 (Karpas422 cells): 13.5 nM; IC50 (WSU-DLCL2 cells): 9.2 nM"
Fc1ccc2c(c1CNc1ncc(OC3CCOCC3)c3nncn13)CCO2 [HJM-016],8.5%,56.1%,52.3%,105.39%,complete tumor disappearance,34.7 nM,55.7 nM,62.50%,8840 ng·h/mL,1220 ng/mL,0.08 h,1.92 mL/min/kg,5.87 h,8.39 h,27200 ng·h/mL,2900 ng/mL,2 h,5.18 h,7.97 h,2060 ng·h/mL,"Cmax ([4]; IV, 1 mg/kg): 932 ng/mL; Tmax ([4]; IV, 1 mg/kg): 0.08 h; clearance ([4]; IV, 1 mg/kg): 8.24 mL/min/kg; half-life ([4]; IV, 1 mg/kg): 2.33 h; MRT inf ([4]; IV, 1 mg/kg): 2.94 h; AUC(0-inf) ([4]; PO, 2 mg/kg): 3900 ng·h/mL; Cmax ([4]; PO, 2 mg/kg): 482 ng/mL; Tmax ([4]; PO, 2 mg/kg): 4 h; half-life ([4]; PO, 2 mg/kg): 2.8 h; MRT inf ([4]; PO, 2 mg/kg): 5.58 h; F ([4]; PO, 2 mg/kg): 98.86%; IC50 (Karpas422 cells): 74.9 nM; IC50 (WSU-DLCL2 cells): 86.4 nM"
Fc1ccc2c(c1CNc1ncc(OCC3COC3)c3nncn13)CCO2 [HJM-104],39.4%,93.29%,88.9%,111.9%,complete tumor disappearance,52.7 nM,81.6 nM,102.43%,3230 ng·h/mL,864 ng/mL,0.08 h,5.9 mL/min/kg,1.67 h,2.86 h,16500 ng·h/mL,3380 ng/mL,1 h,2.09 h,3.53 h,1980 ng·h/mL,"Cmax ([4]; IV, 1 mg/kg): 1360 ng/mL; Tmax ([4]; IV, 1 mg/kg): 0.08 h; clearance ([4]; IV, 1 mg/kg): 8.47 mL/min/kg; half-life ([4]; IV, 1 mg/kg): 2.7 h; MRT inf ([4]; IV, 1 mg/kg): 2.37 h; AUC(0-inf) ([4]; PO, 2 mg/kg): 3470 ng·h/mL; Cmax ([4]; PO, 2 mg/kg): 586 ng/mL; Tmax ([4]; PO, 2 mg/kg): 3.33 h; half-life ([4]; PO, 2 mg/kg): 2.21 h; MRT inf ([4]; PO, 2 mg/kg): 4.43 h; F ([4]; PO, 2 mg/kg): 89.41%; IC50 (Karpas422 cells): 102 nM; IC50 (WSU-DLCL2 cells): 29.6 nM"
